Drawing on patent US20220033397A1, “PHARMACEUTICAL COMPOUNDS AND THEIR USE AS INHIBITORS OF UBIQUITIN SPECIFIC PROTEASE 19 (USP19)” (ALMAC DISCOVERY LIMITED, priority 2018, published 2022), this text covers IC50 for 22 molecules.

The assay deals with T1, Full-length USP19 (Homo sapiens, UniProt O94966).
T1 construct: Full-length USP19 was purchased from Boston Biochem (E-576); purchased Boston Biochem E-576
T1 sequence (O94966 1-1318): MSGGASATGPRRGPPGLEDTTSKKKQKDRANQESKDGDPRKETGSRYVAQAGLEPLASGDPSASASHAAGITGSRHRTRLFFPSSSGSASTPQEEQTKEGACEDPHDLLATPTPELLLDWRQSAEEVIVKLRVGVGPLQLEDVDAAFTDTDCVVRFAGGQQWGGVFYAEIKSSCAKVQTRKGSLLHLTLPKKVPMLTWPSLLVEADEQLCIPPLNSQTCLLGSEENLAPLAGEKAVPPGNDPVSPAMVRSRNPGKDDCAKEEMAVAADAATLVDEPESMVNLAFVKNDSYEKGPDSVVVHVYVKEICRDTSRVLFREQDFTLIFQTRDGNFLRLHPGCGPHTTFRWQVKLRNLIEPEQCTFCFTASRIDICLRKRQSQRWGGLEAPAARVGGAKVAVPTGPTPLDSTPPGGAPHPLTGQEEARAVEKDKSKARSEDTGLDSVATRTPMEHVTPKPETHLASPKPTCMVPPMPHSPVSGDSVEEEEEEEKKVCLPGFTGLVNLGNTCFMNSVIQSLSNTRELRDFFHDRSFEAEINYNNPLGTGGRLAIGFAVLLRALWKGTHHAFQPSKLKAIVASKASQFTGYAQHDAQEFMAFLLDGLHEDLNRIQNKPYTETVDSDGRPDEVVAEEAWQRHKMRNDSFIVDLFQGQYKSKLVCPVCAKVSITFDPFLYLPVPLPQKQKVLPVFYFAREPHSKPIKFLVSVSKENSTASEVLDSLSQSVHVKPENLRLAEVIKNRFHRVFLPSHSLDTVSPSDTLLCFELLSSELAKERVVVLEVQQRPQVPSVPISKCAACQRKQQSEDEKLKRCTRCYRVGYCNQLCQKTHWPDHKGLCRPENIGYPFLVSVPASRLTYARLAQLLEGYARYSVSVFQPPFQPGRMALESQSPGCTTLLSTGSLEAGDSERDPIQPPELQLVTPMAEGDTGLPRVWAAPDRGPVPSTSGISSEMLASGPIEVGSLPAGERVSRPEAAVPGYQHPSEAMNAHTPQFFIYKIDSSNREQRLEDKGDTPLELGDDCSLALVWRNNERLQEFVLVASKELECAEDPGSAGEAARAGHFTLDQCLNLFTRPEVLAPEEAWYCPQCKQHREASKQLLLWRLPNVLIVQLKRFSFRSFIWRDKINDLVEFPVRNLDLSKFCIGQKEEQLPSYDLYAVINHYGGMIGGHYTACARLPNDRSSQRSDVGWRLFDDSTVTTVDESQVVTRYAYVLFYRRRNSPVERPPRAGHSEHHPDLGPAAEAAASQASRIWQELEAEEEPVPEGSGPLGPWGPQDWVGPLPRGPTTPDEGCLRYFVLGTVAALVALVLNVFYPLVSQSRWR
Kind of assay: USP19 fluorescence polarisation (FP) homogeneous assay with Ubiquitin-Lys-TAMRA substrate. In kind it is biochemical. The note with it: 2.5 nM USP19, 30 min pre-incubation, average of at least two duplicate experiments. The method, boiled down:
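Full-length USP19 preincubated 30 min at RT with inhibitor (200 μM to 2 μM series, 8–18 points) before adding 500 nM Ubiquitin-Lys-TAMRA substrate.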

Some results are limits rather than exact numbers.

For `CN(C)c1cc(=O)n(C[C@]2(O)CCN(C(=O)N3CCOC[C@H]3c3ccccc3)CC23CCCC3)cn1` [Example 226, 6-(Dimethylamino)-3-(((S)-10-hydroxy-7-((R)-3-phenylmorpholine-4-carbonyl)-7-azaspiro[4.5]decan-10-yl)methyl)pyrimidin-4(3H)-one], the IC50 is under 0.5 µM.

For the molecule `CN(C(=O)N1CCC(O)(Cn2cnc(-c3ccccc3)cc2=O)C2(CCCC2)C1)C1CCC1` (stereo not shown) [Example 234, N-Cyclobutyl-10-hydroxy-N-methyl-10-((6-oxo-4-phenylpyrimidin-1(6H)-yl)methyl)-7-azaspiro[4.5]decane-7-carboxamide], the IC50 is 5 to 50 µM.

On to `O=C(N1CCC(O)(Cn2cnc(-c3ccccc3)cc2=O)C2(CCOCC2)C1)N1CCOC[C@H]1c1ccccc1` (stereo partly drawn) [Example 325, 3-((5-Hydroxy-2-((R)-3-phenylmorpholine-4-carbonyl)-9-oxa-2-azaspiro[5.5]undecan-5-yl)methyl)-6-phenylpyrimidin-4(3H)-one], for which the IC50 is under 0.5 µM.

As to `CSc1cn(CC2(O)CCN(C(=O)[C@H](C)CC3CCCCC3)CC23CCCC3)c(=O)cc1-c1ccccc1` (stereo partly drawn) [Example 78, 1-((7-((R)-3-Cyclohexyl-2-methylpropanoyl)-10-hydroxy-7-azaspiro[4.5]decan-10-yl)methyl)-5-(methylthio)-4-phenylpyridin-2(1H)-one], the IC50 is under 0.5 µM.

Regarding `COCC1CCN(CC2(O)CCN(C(=O)[C@H](C)CC(F)(F)F)CC23CCCC3)C(=O)C1` (stereo partly drawn) [Example 98, 1-((10-Hydroxy-7-((R)-4,4,4-trifluoro-2-methylbutanoyl)-7-azaspiro[4.5]decan-10-yl)methyl)-4-(methoxymethyl)piperidin-2-one], the IC50 was 5 to 50 µM.

For the molecule `C[S+]([O-])c1cn(CC2(O)CCN(C(=O)N3CCNC[C@H]3c3ccccc3)CC23CCCC3)c(=O)cc1-c1ccccc1` (stereo partly drawn) [Example 187, 1-((10-Hydroxy-7-((R)-2-phenylpiperazine-1-carbonyl)-7-azaspiro[4.5]decan-10-yl)methyl)-5-(methylsulfinyl)-4-phenylpyridin-2(1H)-one], the IC50 was under 0.5 µM.

On to `CC(C)c1coc([C@@H]2CCCN2C(=O)N2CCC(O)(Cn3cnc(-c4ccccc4)cc3=O)C3(CCCC3)C2)n1` (stereo partly drawn) [Example 270, 3-((10-Hydroxy-7-((S)-2-(4-isopropyloxazol-2-yl)pyrrolidine-1-carbonyl)-7-azaspiro[4.5]decan-10-yl)methyl)-6-phenylpyrimidin-4(3H)-one], for which the IC50 was in the range of 50 to 250 µM.

Take `O=C(N1CCC(O)(Cn2cnc3c(cnn3-c3ccccc3)c2=O)C2(CCCC2)C1)N1CCNC[C@H]1c1ccccc1` (stereo partly drawn) [Example 178, 5-((10-Hydroxy-7-((R)-2-phenylpiperazine-1-carbonyl)-7-azaspiro[4.5]decan-10-yl)methyl)-1-phenyl-1,5-dihydro-4H-pyrazolo[3,4-d]pyrimidin-4-one]: the IC50 was under 0.5 µM.

`CSc1ncc2c(=O)n(CC3(O)CCN(C(=O)[C@H](C)CC4CCCCC4)CC34CCCC4)ccc2n1` (stereo partly drawn) [Example 55, 6-((7-((R)-3-Cyclohexyl-2-methylpropanoyl)-10-hydroxy-7-azaspiro[4.5]decan-10-yl)methyl)-2-(methylthio)pyrido[4,3-d]pyrimidin-5(6H)-one]: the IC50 is under 0.5 µM.

In the case of `CC(Cc1ccccc1)C(=O)N1CCC(O)(CN2CC(Cc3ccccc3)CC2=O)C(C)(C)C1` (stereo not shown) [Example 44, 4-Benzyl-1-((4-hydroxy-3,3-dimethyl-1-(2-methyl-3-phenylpropanoyl)piperidin-4-yl)methyl)pyrrolidin-2-one], the IC50 lay within 50 to 250 µM.

Consider `O=C(N1CC[C@@](O)(Cn2cnc(-c3ccccc3)cc2=O)C2(CCCC2)C1)N1CCNCC1c1cc(F)cc(F)c1` (mixture of isomers) [Example 380, 3-(((10S)-7-(2-(3,5-difluorophenyl)piper-azine-1-carbonyl)-10-hydroxy-7-azaspiro[4.5]decan-10-yl)methyl)-6-phenylpyrimidin-4(3H)-one], for which the IC50 was under 0.5 µM.

On to `N#Cc1cccc(CNC(=O)N2CCC(O)(Cn3cnc(-c4ccccc4)cc3=O)C3(CCCC3)C2)c1` (stereo not shown) [Example 257, N-(3-Cyanobenzyl)-10-hydroxy-10-((6-oxo-4-phenylpyrimidin-1(6H)-yl)methyl)-7-azaspiro[4.5]decane-7-carboxamide], for which the IC50 was in the range of 5 to 50 µM.

Take `C[C@H](CC1CCCCC1)C(=O)N1CCC(O)(Cn2cc(S(C)(=N)=O)c(Cl)cc2=O)C2(CCCC2)C1` (stereo partly drawn) [Example 71, 4-Chloro-1-((7-((R)-3-cyclohexyl-2-methylpropanoyl)-10-hydroxy-7-azaspiro[4.5]decan-10-yl)methyl)-5-(S-methylsulfonimidoyl)pyridin-2(1H)-one]: the IC50 is under 0.5 µM.

As for `O=C(N1CCC(n2cccc2)C1)N1CCC(O)(Cn2cnc(-c3ccccc3)cc2=O)C2(CCCC2)C1` (stereo not shown) [Example 246, 3-((7-(3-(1H-Pyrrol-1-yl)pyrrolidine-1-carbonyl)-10-hydroxy-7-azaspiro[4.5]decan-10-yl)methyl)-6-phenylpyrimidin-4(3H)-one], the IC50 was 5 to 50 µM.

For `O=C(NCc1ccc2c(c1)OCO2)N1CC[C@@](O)(Cn2cnc(-c3ccccc3)cc2=O)C2(CCCC2)C1` [Example 217, (S)—N-(Benzo[d][1,3]dioxol-5-ylmethyl)-10-hydroxy-10-((6-oxo-4-phenylpyrimidin-1(6H)-yl)methyl)-7-azaspiro[4.5]decane-7-carboxamide], the IC50 lay in the range of 5 to 50 µM.

`Cc1cccc(F)c1-c1cc(=O)n(C[C@]2(O)CCN(C(=O)N3CCNC[C@H]3c3ccccc3)CC23CCCC3)cn1` [Example 382, 6-(2-Fluoro-6-meth-ylphenyl)-3-(((S)-10-hydroxy-7-((R)-2-phenylpiperazine-1-carbonyl)-7-aza-spiro[4.5]decan-10-yl)methyl)pyrimidin-4(3H)-one]: the IC50 was under 0.5 µM.

For `CN(C)C(=O)c1cn(C[C@]2(O)CCN(C(=O)N3CCOC[C@H]3c3ccccc3)CC2(C)C)c(=O)cc1-c1ccccc1` [Example 283, 1-(((S)-4-Hydroxy-3,3-dimethyl-1-((R)-3-phenylmorpholine-4-carbonyl)piperidin-4-yl)methyl)-N,N-dimethyl-6-oxo-4-phenyl-1,6-dihydropyridine-3-carboxamide], the IC50 was under 0.5 µM.

Turning to `CN(C)C(=O)[C@@H]1CCCN1C(=O)N1CCC(O)(Cn2cnc(-c3ccccc3)cc2=O)C2(CCCC2)C1` (stereo partly drawn) [Example 266, (2S)-1-(10-Hydroxy-10-((6-oxo-4-phenylpyrimidin-1(6H)-yl)methyl)-7-azaspiro[4.5]decane-7-carbonyl)-N,N-dimethylpyrrolidine-2-carboxamide], the IC50 was in the range of 50 to 250 µM.

As for `Cn1nccc1-c1cc(=O)n(C[C@]2(O)CCN(C(=O)N3CCOC[C@H]3c3ccccc3)CC23CCCC3)cn1` [Example 224, 3-(((S)-10-Hydroxy-7-((R)-3-phenylmorpholine-4-carbonyl)-7-azaspiro[4.5]decan-10-yl)methyl)-6-(1-methyl-1H-pyrazol-5-yl)pyrimidin-4(3H)-one], the IC50 is under 0.5 µM.

As for `C[C@H](CC1CCCCC1)C(=O)N1CCC(O)(Cn2cc(-c3ccccc3)c(N=S(C)(C)=O)cc2=O)C2(CCCC2)C1` (stereo partly drawn) [Example 73, 1-((7-((R)-3-Cyclohexyl-2-methylpropanoyl)-10-hydroxy-7-azaspiro[4.5]decan-10-yl)methyl)-4-((dimethyl(oxo)-λ^6-sulfaneylidene)amino)-5-phenylpyridin-2(1H)-one], the IC50 fell in the range of 0.5 to 5 µM.

In the case of `O=C(NCc1ccccc1F)N1CCC(O)(Cn2cnc(-c3ccccc3)cc2=O)C2(CCCC2)C1` (stereo not shown) [Example 254, N-(2-Fluorobenzyl)-10-hydroxy-10-((6-oxo-4-phenylpyrimidin-1(6H)-yl)methyl)-7-azaspiro[4.5]decane-7-carboxamide], the IC50 was under 0.5 µM.

As to `COc1cc(=O)n(C[C@]2(O)CCN(C(=O)N3CCNC[C@H]3c3ccccc3)CC23CCCC3)cn1` [Example 324, 3-(((S)-10-Hydroxy-7-((R)-2-phenylpiperazine-1-carbonyl)-7-azaspiro[4.5]decan-10-yl)methyl)-6-methoxypyrimidin-4(3H)-one], the IC50 was under 0.5 µM.
